Data from patent US10479780B2, “Aminopyrazole derivatives” (Chugai Seiyaku Kabushiki Kaisha, priority 2015, dated 2019).
pIC50: −log10 of the molar value.

Assays:
Assay type in all cases: biochemical
human Yes1 enzyme = target: T1, human Yes1 enzyme (Homo sapiens, UniProt P07947); test: Yes1 enzyme inhibitory activity (time-resolved fluorometry, biotinylated peptide phosphorylation); settings: read-out: YES_IC50
T1 construct: made in house
How it was run: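 Inhibition was expressed against a compound-free control to give IC50, using TR-FRET read-out (Eu-cryptate anti-pTyr antibody, streptavidin-XL665).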

human Lck enzyme = target: T2, human Lck enzyme (Homo sapiens, UniProt P06239); test: Lck enzyme inhibitory activity (time-resolved fluorometry, biotinylated peptide phosphorylation); settings: read-out: LCK_IC50
T2 construct: purchased Carna Biosciences, Inc. 08-170
T2 sequence (P06239 whole entry): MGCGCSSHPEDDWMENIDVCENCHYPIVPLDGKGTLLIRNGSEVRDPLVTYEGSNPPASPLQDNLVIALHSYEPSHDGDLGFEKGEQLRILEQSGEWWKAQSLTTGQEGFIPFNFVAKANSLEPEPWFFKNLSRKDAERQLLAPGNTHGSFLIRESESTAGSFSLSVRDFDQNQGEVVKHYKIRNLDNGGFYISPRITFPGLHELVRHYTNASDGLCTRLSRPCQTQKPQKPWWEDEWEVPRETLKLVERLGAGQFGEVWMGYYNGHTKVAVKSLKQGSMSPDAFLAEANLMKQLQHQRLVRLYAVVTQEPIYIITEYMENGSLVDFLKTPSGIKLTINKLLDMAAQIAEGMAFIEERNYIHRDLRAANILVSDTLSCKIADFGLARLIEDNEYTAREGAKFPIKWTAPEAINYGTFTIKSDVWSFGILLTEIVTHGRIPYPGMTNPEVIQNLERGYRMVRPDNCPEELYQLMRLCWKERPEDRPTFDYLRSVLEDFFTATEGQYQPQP
How it was run: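 Readout pairs a europium cryptate-labelled anti-phosphotyrosine antibody with XL665-streptavidin, measured by time-resolved fluorescence. IC50 derived from percent inhibition against untreated controls.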

human Src enzyme = target: T3, human Src enzyme (Homo sapiens, UniProt P12931); test: Src enzyme inhibitory activity (time-resolved fluorometry, biotinylated peptide phosphorylation); settings: read-out: SRC_IC50
T3 construct: purchased Carna Biosciences, Inc. 08-173
T3 sequence (P12931 whole entry): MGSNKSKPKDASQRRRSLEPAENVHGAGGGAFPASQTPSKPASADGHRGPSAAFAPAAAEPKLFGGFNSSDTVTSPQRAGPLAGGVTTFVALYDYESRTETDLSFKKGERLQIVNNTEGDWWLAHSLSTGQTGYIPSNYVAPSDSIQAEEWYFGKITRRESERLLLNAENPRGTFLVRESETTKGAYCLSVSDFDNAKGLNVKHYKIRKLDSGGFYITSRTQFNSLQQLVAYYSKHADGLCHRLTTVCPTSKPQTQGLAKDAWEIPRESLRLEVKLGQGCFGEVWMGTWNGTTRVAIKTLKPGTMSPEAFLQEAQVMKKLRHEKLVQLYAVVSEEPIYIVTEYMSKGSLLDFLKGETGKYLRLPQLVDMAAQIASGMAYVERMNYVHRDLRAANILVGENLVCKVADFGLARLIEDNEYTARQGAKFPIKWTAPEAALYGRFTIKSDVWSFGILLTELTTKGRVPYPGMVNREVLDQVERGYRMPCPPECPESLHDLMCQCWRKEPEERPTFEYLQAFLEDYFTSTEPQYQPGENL
How it was run: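 Compounds were tested for blocking tyrosine phosphorylation of a biotinylated peptide substrate by recombinant human Src. Phosphorylated product was quantified by time-resolved fluorometry using europium cryptate and XL665 conjugates, and IC50 was calculated against the compound-free control.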

T1 sequence (P07947 whole entry): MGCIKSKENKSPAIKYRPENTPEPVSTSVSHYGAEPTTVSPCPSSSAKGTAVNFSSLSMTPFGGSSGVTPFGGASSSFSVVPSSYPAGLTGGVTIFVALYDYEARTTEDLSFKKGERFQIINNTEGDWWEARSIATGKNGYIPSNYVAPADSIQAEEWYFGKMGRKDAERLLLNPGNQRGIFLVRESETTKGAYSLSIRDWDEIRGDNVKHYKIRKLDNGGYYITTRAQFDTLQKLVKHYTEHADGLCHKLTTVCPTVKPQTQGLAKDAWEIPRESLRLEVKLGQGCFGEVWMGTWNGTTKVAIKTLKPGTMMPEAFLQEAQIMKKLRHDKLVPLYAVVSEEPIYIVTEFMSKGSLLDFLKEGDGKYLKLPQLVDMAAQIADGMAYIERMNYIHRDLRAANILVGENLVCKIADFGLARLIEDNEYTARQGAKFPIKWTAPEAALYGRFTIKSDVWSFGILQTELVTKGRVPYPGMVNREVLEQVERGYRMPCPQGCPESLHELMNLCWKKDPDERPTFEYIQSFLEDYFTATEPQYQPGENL

In the case of `Cc1cc(Oc2c(F)cccc2F)ncc1-n1ncc(C(=O)c2cc3cc(F)c(NC4CCN(S(C)(=O)=O)CC4)cc3[nH]2)c1N` [Example 5-1-113, [5-amino-1-[6-(2,6-difluorophenoxy)-4-methylpyridin-3-yl]pyrazol-4-yl]-[5-fluoro-6-[(1-methylsulfonylpiperidin-4-yl)amino]-1H-indol-2-yl]methanone], the pIC50 (human Yes1 enzyme) was 8.41, the pIC50 (human Lck enzyme) was 8.48 and the pIC50 (human Src enzyme) was 7.39.
`Cc1cc(Oc2c(F)cccc2F)ncc1-n1ncc(C(=O)c2cc3cc(F)c(N4C(=O)NC(C)(C)C4=O)cc3[nH]2)c1N` [Example 5-1-114, 3-[2-[5-amino-1-[6-(2,6-difluorophenoxy)-4-methylpyridin-3-yl]pyrazole-4-carbonyl]-5-fluoro-1H-indol-6-yl]-5,5-dimethylimidazolidine-2,4-dione] was tested, and the pIC50 (human Yes1 enzyme) was 8.77, the pIC50 (human Lck enzyme) was 8.96 and the pIC50 (human Src enzyme) was 7.39.
`Cc1cc(Oc2c(F)cccc2F)ncc1-n1ncc(C(=O)c2cc3cc(F)c(N4C(=O)C(C)(C)NC4=S)cc3[nH]2)c1N` [Example 5-1-115, 3-[2-[5-amino-1-[6-(2,6-difluorophenoxy)-4-methylpyridin-3-yl]pyrazole-4-carbonyl]-5-fluoro-1H-indol-6-yl]-5,5-dimethyl-2-sulfanylideneimidazolidin-4-one] gave a pIC50 (human Yes1 enzyme) of 8.64, a pIC50 (human Lck enzyme) of 8.15 and a pIC50 (human Src enzyme) of 7.28.
`Cc1cc(Oc2ccccc2F)ccc1-n1ncc(C(=O)c2cc3cc(N4CCOCC4)c(-n4c(C)cc(=O)[nH]c4=O)cc3[nH]2)c1N` [Example 5-1-116, 1-[2-[5-amino-1-[4-(2-fluorophenoxy)-2-methylphenyl]pyrazole-4-carbonyl]-5-morpholin-4-yl-1H-indol-6-yl]-6-methylpyrimidine-2,4-dione] showed a pIC50 (human Yes1 enzyme) of 9.29, a pIC50 (human Lck enzyme) of 8.80 and a pIC50 (human Src enzyme) of 8.28.
`Cc1cc(Oc2ccccc2F)ccc1-n1ncc(C(=O)c2cc3cc(N4CCOCC4)c(N4C(=O)NC(C)(C)C4=O)cc3[nH]2)c1N` [Example 5-1-117, 3-[2-[5-amino-1-[4-(2-fluorophenoxy)-2-methylphenyl]pyrazole-4-carbonyl]-5-morpholin-4-yl-1H-indol-6-yl]-5,5-dimethylimidazolidine-2,4-dione] was tested, and the pIC50 (human Yes1 enzyme) was 9.32, the pIC50 (human Lck enzyme) was 8.89 and the pIC50 (human Src enzyme) was 8.30.
Compound `Cc1cc(Oc2ccccc2F)ccc1-n1ncc(C(=O)c2cc3cc(F)c(NC4CN(S(C)(=O)=O)C4)cc3[nH]2)c1N` [Example 5-1-118] has a pIC50 (human Yes1 enzyme) of 9.07, a pIC50 (human Lck enzyme) of 8.57 and a pIC50 (human Src enzyme) of 7.96.
With `Cc1cc(Oc2ccccc2F)ccc1-n1ncc(C(=O)c2cc3cc(F)c(N4CCOCC4)cc3[nH]2)c1N` [Example 5-1-119, [5-amino-1-[4-(2-fluorophenoxy)-2-methylphenyl]pyrazol-4-yl]-(5-fluoro-6-morpholin-4-yl-1H-indol-2-yl)methanone] the pIC50 (human Yes1 enzyme) was 8.74, the pIC50 (human Lck enzyme) was 8.32 and the pIC50 (human Src enzyme) was 7.82.
In the case of `Cc1cc(Oc2ccccc2F)ccc1-n1ncc(C(=O)c2cc3cc(N4CCOCC4)c(N4C(=O)C(C)(C)NC4=S)cc3[nH]2)c1N` [Example 5-1-120, 3-[2-[5-amino-1-[4-(2-fluorophenoxy)-2-methylphenyl]pyrazole-4-carbonyl]-5-morpholin-4-yl-1H-indol-6-yl]-5,5-dimethyl-2-sulfanylideneimidazolidin-4-one], the pIC50 (human Yes1 enzyme) was 9.37, the pIC50 (human Lck enzyme) was 8.21 and the pIC50 (human Src enzyme) was 7.64.
Work on `Cc1cc2cc(C(=O)c3cnn(-c4cnc(Oc5ccccc5F)cc4C)c3N)[nH]c2cc1NS(=O)(=O)CC(=O)N1CCCC1` [Example 5-1-121, N-[2-[5-amino-1-[6-(2-fluorophenoxy)-4-methylpyridin-3-yl]pyrazole-4-carbonyl]-5-methyl-1H-indol-6-yl]-2-oxo-2-pyrrolidin-1-ylethanesulfonamide] yielded a pIC50 (human Yes1 enzyme) of 8.77, a pIC50 (human Lck enzyme) of 7.85 and a pIC50 (human Src enzyme) of 7.05.
`COc1cc2cc(C(=O)c3cnn(-c4ccc(Oc5ccccc5F)cc4C)c3N)[nH]c2cc1NS(=O)(=O)CC(=O)N1CCCC1` [Example 5-1-122, N-[2-[5-amino-1-[4-(2-fluorophenoxy)-2-methylphenyl]pyrazole-4-carbonyl]-5-methoxy-1H-indol-6-yl]-2-oxo-2-pyrrolidin-1-ylethanesulfonamide] was tested, and the pIC50 (human Yes1 enzyme) was 9.41, the pIC50 (human Lck enzyme) was 8.34 and the pIC50 (human Src enzyme) was 7.52.
In the case of `Cc1cc2cc(C(=O)c3cnn(-c4cnc(Oc5ccccc5F)cc4C)c3N)[nH]c2cc1C1CCN(S(=O)(=O)C2CC2)CC1` [Example 5-1-123, [5-amino-1-[6-(2-fluorophenoxy)-4-methylpyridin-3-yl]pyrazol-4-yl]-[6-(1-cyclopropylsulfonylpiperidin-4-yl)-5-methyl-1H-indol-2-yl]methanone], the pIC50 (human Yes1 enzyme) was 8.70, the pIC50 (human Lck enzyme) was 7.48 and the pIC50 (human Src enzyme) was 7.04.
Work on `Cc1cc(Oc2ccccc2F)ccc1-n1ncc(C(=O)c2cc3cc(N4CCOCC4)c(N4CCC(N5CCOCC5)CC4)cc3[nH]2)c1N` [Example 5-1-124, [5-amino-1-[4-(2-fluorophenoxy)-2-methylphenyl]pyrazol-4-yl]-[5-morpholin-4-yl-6-(4-morpholin-4-ylpiperidin-1-yl)-1H-indol-2-yl]methanone] yielded a pIC50 (human Yes1 enzyme) of 9.00, a pIC50 (human Lck enzyme) of 8.00 and a pIC50 (human Src enzyme) of 7.15.
`Cc1cc(Oc2ccccc2F)ccc1-n1ncc(C(=O)c2cc3cc(F)c(N4CCN(S(C)(=O)=O)CC4)cc3[nH]2)c1N` [Example 5-1-125, [5-amino-1-[4-(2-fluorophenoxy)-2-methylphenyl]pyrazol-4-yl]-[5-fluoro-6-(4-methylsulfonylpiperazin-1-yl)-1H-indol-2-yl] methanone] was tested, and the pIC50 (human Yes1 enzyme) was 9.15, the pIC50 (human Lck enzyme) was 8.04 and the pIC50 (human Src enzyme) was 7.48.
For `Cc1cc(Oc2ccccc2F)ccc1-n1ncc(C(=O)c2cc3cc(F)c(N4C(=O)C(C)(C)NC4=S)cc3[nH]2)c1N` [Example 5-1-126, 3-[2-[5-amino-1-[4-(2-fluorophenoxy)-2-methylphenyl]pyrazole-4-carbonyl]-5-fluoro-1H-indol-6-yl]-5,5-dimethyl-2-sulfanylideneimidazolidin-4-one], the pIC50 (human Yes1 enzyme) was 9.06, the pIC50 (human Lck enzyme) was 7.82 and the pIC50 (human Src enzyme) was 7.19.
Compound `Cc1cc(Oc2ccccc2F)ccc1-n1ncc(C(=O)c2cc3cc(F)c(N4C(=O)NC(C)(C)C4=O)cc3[nH]2)c1N` [Example 5-1-127, 3-[2-[5-amino-1-[4-(2-fluorophenoxy)-2-methylphenyl]pyrazole-4-carbonyl]-5-fluoro-1H-indol-6-yl]-5,5-dimethylimidazolidine-2,4-dione] has a pIC50 (human Yes1 enzyme) of 9.17, a pIC50 (human Lck enzyme) of 8.40 and a pIC50 (human Src enzyme) of 7.41.
With `Cc1cc(Oc2ccccc2F)ccc1-n1ncc(C(=O)c2cc3cc(F)c(N4CCC(N5CCOCC5)CC4)cc3[nH]2)c1N` [Example 5-1-128, [5-amino-1-[4-(2-fluorophenoxy)-2-methylphenyl]pyrazol-4-yl]-[5-fluoro-6-(4-morpholin-4-ylpiperidin-1-yl)-1H-indol-2-yl] methanone] the pIC50 (human Yes1 enzyme) was 9.12, the pIC50 (human Lck enzyme) was 8.42 and the pIC50 (human Src enzyme) was 7.64.
`Cc1cc(Oc2ccccc2F)ccc1-n1ncc(C(=O)c2cc3cc(N4CCOCC4)c(NC4CCN(S(C)(=O)=O)CC4)cc3[nH]2)c1N` [Example 5-1-129, [5-amino-1-[4-(2-fluorophenoxy)-2-methylphenyl]pyrazol-4-yl]-[6-[(1-methylsulfonylpiperidin-4-yl)amino]-5-morpholin-4-yl-1H-indol-2-yl]methanone] was tested, and the pIC50 (human Yes1 enzyme) was 9.21, the pIC50 (human Lck enzyme) was 8.34 and the pIC50 (human Src enzyme) was 8.14.
Work on `COc1cc2cc(C(=O)c3cnn(-c4c(C)cc(Oc5ccccc5F)cc4F)c3N)[nH]c2cc1NS(=O)(=O)CC(=O)N1CCCC1` [Example 5-1-130, N-[2-[5-amino-1-[2-fluoro-4-(2-fluorophenoxy)-6-methylphenyl]pyrazole-4-carbonyl]-5-methoxy-1H-indol-6-yl]-2-oxo-2-pyrrolidin-1-ylethanesulfonamide] yielded a pIC50 (human Yes1 enzyme) of 9.25, a pIC50 (human Lck enzyme) of 8.42 and a pIC50 (human Src enzyme) of 7.89.
Compound `Cc1cc2cc(C(=O)c3cnn(-c4ccc(Oc5ccccc5F)cc4C)c3N)[nH]c2cc1C1CCN(S(=O)(=O)C2CC2)CC1` [Example 5-1-131, [5-amino-1-[4-(2-fluorophenoxy)-2-methylphenyl]pyrazol-4-yl]-[6-(1-cyclopropylsulfonylpiperidin-4-yl)-5-methyl-1H-indol-2-yl]methanone] has a pIC50 (human Yes1 enzyme) of 8.96, a pIC50 (human Lck enzyme) of 8.25 and a pIC50 (human Src enzyme) of 8.13.
`CC(=O)N1CCC(c2cc3[nH]c(C(=O)c4cnn(-c5ccc(Oc6ccccc6F)cc5C)c4N)cc3cc2C)CC1` [Example 5-1-132, 1-[4-[2-[5-amino-1-[4-(2-fluorophenoxy)-2-methylphenyl]pyrazole-4-carbonyl]-5-methyl-1H-indol-6-yl]piperidin-1-yl]ethanone] was tested, and the pIC50 (human Yes1 enzyme) was 9.15, the pIC50 (human Lck enzyme) was 8.48 and the pIC50 (human Src enzyme) was 8.18.
In the case of `CC(=O)N1CCC(c2cc3[nH]c(C(=O)c4cnn(-c5cnc(Oc6ccccc6F)cc5C)c4N)cc3cc2C)CC1` [Example 5-1-133, 1-[4-[2-[5-amino-1-[6-(2-fluorophenoxy)-4-methylpyridin-3-yl]pyrazole-4-carbonyl]-5-methyl-1H-indol-6-yl]piperidin-1-yl]ethanone], the pIC50 (human Yes1 enzyme) was 9.20, the pIC50 (human Lck enzyme) was 8.60 and the pIC50 (human Src enzyme) was 8.21.
`Cc1cc(Oc2c(F)cccc2F)ncc1-n1ncc(C(=O)c2cc3cc(OC4CCN(C(C)C)CC4)c(Br)cc3[nH]2)c1N` [Example 5-1-134, [5-amino-1-[6-(2,6-difluorophenoxy)-4-methylpyridin-3-yl]pyrazol-4-yl]-[6-bromo-5-(1-propan-2-ylpiperidin-4-yl)oxy-1H-indol-2-yl] methanone] gave a pIC50 (human Yes1 enzyme) of 9.43, a pIC50 (human Lck enzyme) of 8.68 and a pIC50 (human Src enzyme) of 8.34.
